According to ChEMBL document CHEMBL1201862, “PubChem BioAssay data set” (2004):
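Dose response: 5 concentrations. Exposure: 48 h. Format: 96-well plates. Endpoint: linear interpolation; highest concentration if not reached. Here, GI50 denotes the concentration required for 50% inhibition of growth.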 Activity calls are given as the source filed them. No stated cut-off is given here; in the data, active = GI50 up to about 1.1 µM and inactive = higher.

Legend:
Experiment in all cases: growth of human tumour cells (NCI), 48 h
786-0 = test system: 786-0
OVCAR-4 = test system: OVCAR-4
SF-268 = test system: SF-268
SW-620 = test system: SW-620
HOP-92 = test system: HOP-92
HT-29 = test system: HT-29
T47D = test system: T47D
ACHN = test system: ACHN
CCRF-CEM = test system: CCRF-CEM
OVCAR-8 = test system: OVCAR-8
M14 = test system: M14
MCF7 = test system: MCF7
A549 = test system: A549
SK-MEL-2 = test system: SK-MEL-2
NCI-H460 = test system: NCI-H460
CAKI-1 = test system: CAKI-1
HL-60 = test system: HL-60
DU-145 = test system: DU-145
SN12C = test system: SN12C
HOP-62 = test system: HOP-62
MDA-MB-231 = test system: MDA-MB-231
SNB-19 = test system: SNB-19
SK-MEL-28 = test system: SK-MEL-28
Hs-578T = test system: Hs-578T
OVCAR-3 = test system: OVCAR-3
SK-OV-3 = test system: SK-OV-3
K562 = test system: K562
A498 = test system: A498
UACC-257 = test system: UACC-257
SNB-75 = test system: SNB-75
HCT-15 = test system: HCT-15
NCI-H23 = test system: NCI-H23
BT-549 = test system: BT-549
MDA-MB-435 = test system: MDA-MB-435
IGROV-1 = test system: IGROV-1
KM12 = test system: KM12
MOLT-4 = test system: MOLT-4
UO-31 = test system: UO-31
HCC 2998 = test system: HCC 2998
EKVX = test system: EKVX
SR = test system: SR
U-251 = test system: U-251
OVCAR-5 = test system: OVCAR-5
COLO 205 = test system: COLO 205
TK-10 = test system: TK-10
NCI/ADR-RES = test system: NCI/ADR-RES
UACC-62 = test system: UACC-62
SF-295 = test system: SF-295
SK-MEL-5 = test system: SK-MEL-5
SF-539 = test system: SF-539
PC-3 = test system: PC-3
NCI-H226 = test system: NCI-H226
LOX IMVI = test system: LOX IMVI
HCT-116 = test system: HCT-116
MDA-N = test system: MDA-N

Q: Which results are given for `COc1cccc(CCn2c(N)c(C#N)c3ccc([N+](=O)[O-])cc3c2=O)c1`?
A: GI50 (786-0): > 46.5 µM (inactive); GI50 (OVCAR-4): > 84.7 µM (inactive); GI50 (SF-268): > 46.5 µM (inactive); GI50 (SW-620): > 100 µM (inactive); GI50 (HOP-92): > 31.6 µM (inactive); GI50 (HT-29): > 31.6 µM (inactive); GI50 (T47D): > 46.5 µM (inactive); GI50 (ACHN): > 46.5 µM (inactive); GI50 (CCRF-CEM): 4.35 µM (inactive); GI50 (OVCAR-8): > 46.5 µM (inactive); GI50 (M14): > 31.6 µM (inactive); GI50 (MCF7): > 31.6 µM (inactive); GI50 (A549): > 46.5 µM (inactive); GI50 (SK-MEL-2): > 46.5 µM (inactive); GI50 (NCI-H460): > 46.5 µM (inactive); GI50 (CAKI-1): > 46.5 µM (inactive); GI50 (HL-60): 3.78 µM (inactive); GI50 (DU-145): > 46.5 µM (inactive); GI50 (SN12C): > 100 µM (inactive); GI50 (HOP-62): > 31.6 µM (inactive); GI50 (MDA-MB-231): > 46.5 µM (inactive); GI50 (SNB-19): 98.2 µM (inactive); GI50 (SK-MEL-28): > 100 µM (inactive); GI50 (Hs-578T): 39.9 µM (inactive); GI50 (OVCAR-3): > 31.6 µM (inactive); GI50 (SK-OV-3): > 31.6 µM (inactive); GI50 (K562): 0.283 µM (active); GI50 (A498): > 100 µM (inactive); GI50 (UACC-257): > 31.6 µM (inactive); GI50 (SNB-75): > 46.5 µM (inactive); GI50 (HCT-15): > 31.6 µM; GI50 (NCI-H23): > 46.5 µM (inactive); GI50 (BT-549): > 10 µM (inactive); GI50 (MDA-MB-435): 0.22 µM (active); GI50 (IGROV-1): > 31.6 µM (inactive); GI50 (KM12): > 31.6 µM (inactive); GI50 (MOLT-4): > 31.6 µM (inactive); GI50 (UO-31): > 46.5 µM (inactive); GI50 (HCC 2998): > 46.5 µM (inactive); GI50 (EKVX): > 31.6 µM (inactive); GI50 (SR): 0.073 µM (active); GI50 (U-251): > 100 µM (inactive); GI50 (OVCAR-5): > 31.6 µM (inactive); GI50 (COLO 205): > 100 µM (inactive); GI50 (TK-10): > 46.5 µM (inactive); GI50 (NCI/ADR-RES): > 46.5 µM (inactive); GI50 (UACC-62): > 31.6 µM (inactive); GI50 (SF-295): > 31.6 µM (inactive); GI50 (SK-MEL-5): > 100 µM (inactive); GI50 (SF-539): > 10 µM (inactive); GI50 (PC-3): > 46.5 µM (inactive); GI50 (NCI-H226): > 31.6 µM (inactive); GI50 (LOX IMVI): > 46.5 µM (inactive); GI50 (HCT-116): > 46.5 µM (inactive); GI50 (MDA-N): 0.256 µM (active)
